Data: US8741347B2, “Method for forming cyclodextrin polymer and lipophilic compound emulsions, resulting emulsions, and compositions including said emulsions” (Centre National de la Recherche Scientifique—CNRS, priority 2009, dated 2014)

Experiments:
[1] = Interfacial rheology, interfacial tension by the drop method (Tracker); format: physicochemical
Description: The interface (oil/aqueous solution of polymer) elastic behavior is measured from the variation in interfacial tension. The apparatus used for measuring the elastic properties is a Tracker®, manufactured by the company […] Concept. The interfacial tension is measured by the drop method. A deformation of the interfacial area by dilation or by contraction of the volume of the drop creates a variation in the interfacial concentration of the polymers adsorbed at the interface. The Tracker® records the response of the interfacial tension and subsequently establishes the relationship between the deformation of the interface and this response, which describes the rheological behavior of the interface. A deformation of the interfacial area is repeated over time by imposing a sinusoidal variation in the volume of the drop, and thus makes it possible to establish the viscoelastic characteristics of the interface. […] The drop is formed at the end of the capillary connected to a syringe, the plunger of which is controlled by a motor. The needle used has a 180° curve in order to have a rising drop, the density of the oils being in this case lower than that of the aqueous phase. The gauge of the needle is 18, which corresponds to an internal diameter of 0.84 mm and an external diameter of 1.27 mm. The needle is made of Teflon in order to avoid wetting of the drop on the walls of the needle. […]

[2] = Emulsion formation and stability over time, optical microscopy observation on storage; format: physicochemical; conditions: cyclodextrin monomer 17 mg/ml in water + 10 mg Parsol MCX per ml, pulsed sonication 40 s, stored at 25° C. with tangential agitation
Description: The α-, β- or γ-cyclodextrin monomers are placed in solution in water at a concentration of 17 mg/ml. 10 mg of Parsol® MCX are added to 1 ml of the aqueous solution of α-, β- or γ-cyclodextrin thus prepared. The mixture is then subjected to pulsed sonication for 40 seconds in an ice-cold bath (0° C.). The resulting product is stored at 25° C. with tangential agitation.
The α-, β- or γ-cyclodextrin dimers/trimers are put into solution in water. 10 mg of Parsol® MCX are added to 1 ml of the aqueous solution of α-, β- or γ-cyclodextrin dimer/trimer thus prepared. The mixture is then subjected to pulsed sonication for 40 seconds in an ice-cold bath (0° C.). The resulting product is stored at 25° C. with tangential agitation.
The resulting emulsions are conditioned for storage at 25° C., with tangential agitation, at 37° C. or 4° C. for a varying period ranging from a few days up to a few months before use.
Emulsions (a) to (c) are formed by pulsed sonication for a period of 40 seconds and stored at 25° C.

CC(C)=CCC/C(C)=C/CC/C(C)=C/CC/C=C(\C)CC/C=C(\C)CCC=C(C)C [squalene]
interfacial tension ([1]; oil drop in aqueous poly-β-CD solution): approximately 12 mN/m

OC[C@H]1O[C@@H]2O[C@H]3[C@H](O)[C@@H](O)[C@@H](O[C@H]4[C@H](O)[C@@H](O)[C@@H](O[C@H]5[C@H](O)[C@@H](O)[C@@H](O[C@H]6[C@H](O)[C@@H](O)[C@@H](O[C@H]7[C@H](O)[C@@H](O)[C@@H](O[C@H]1[C@H](O)[C@H]2O)O[C@@H]7CO)O[C@@H]6CO)O[C@@H]5CO)O[C@@H]4CO)O[C@@H]3CO [α-cyclodextrin monomers, α-cyclodextrin]
outcome of attempt to prepare an emulsion [2]: formation of an insoluble precipitate
outcome of attempt to prepare an emulsion ([2]; listed as α-monomers): an insoluble precipitate is formed as early as the first day (day zero)

OC[C@H]1O[C@@H]2O[C@H]3[C@H](O)[C@@H](O)[C@@H](O[C@H]4[C@H](O)[C@@H](O)[C@@H](O[C@H]5[C@H](O)[C@@H](O)[C@@H](O[C@H]6[C@H](O)[C@@H](O)[C@@H](O[C@H]7[C@H](O)[C@@H](O)[C@@H](O[C@H]8[C@H](O)[C@@H](O)[C@@H](O[C@H]1[C@H](O)[C@H]2O)O[C@@H]8CO)O[C@@H]7CO)O[C@@H]6CO)O[C@@H]5CO)O[C@@H]4CO)O[C@@H]3CO [β-cyclodextrin monomers, β-cyclodextrin]
behaviour of the oil/aqueous solution interface ([1]; squalene (borage, ginger) drop in aqueous cyclodextrin solution): formation of a rigid membrane at the surface of the squalene drop
outcome of attempt to prepare an emulsion [2]: formation of an insoluble precipitate
outcome of attempt to prepare an emulsion ([2]; listed as β-monomers): an insoluble precipitate is formed as early as the first day (day zero)

OC[C@H]1O[C@@H]2O[C@H]3[C@H](O)[C@@H](O)[C@@H](O[C@H]4[C@H](O)[C@@H](O)[C@@H](O[C@H]5[C@H](O)[C@@H](O)[C@@H](O[C@H]6[C@H](O)[C@@H](O)[C@@H](O[C@H]7[C@H](O)[C@@H](O)[C@@H](O[C@H]8[C@H](O)[C@@H](O)[C@@H](O[C@H]9[C@H](O)[C@@H](O)[C@@H](O[C@H]1[C@H](O)[C@H]2O)O[C@@H]9CO)O[C@@H]8CO)O[C@@H]7CO)O[C@@H]6CO)O[C@@H]5CO)O[C@@H]4CO)O[C@@H]3CO [γ-cyclodextrins, γ-cyclodextrin]
outcome of attempt to prepare an emulsion [2]: formation of an emulsion (for two days) and then a precipitation
outcome of attempt to prepare an emulsion ([2]; listed as γ-monomer): initially forms an emulsion and then precipitates rapidly (two days)
